Experimental data reported in patent US11866502B2, “Anti-FGFR2 antibodies and methods of use thereof” (Regeneron Pharmaceuticals, Inc., priority 2020, dated 2024).
Where two headings read alike, the source gives them in different places.

What was measured:
[1] = test system: MFM-223 cells; test: In vitro cytotoxicity assay (CellTiter-Glo 2.0), MFM-223 cells; type: cell-based, human; conditions: for Max % Kill: MFM-223, up to 20 nM
Description: (§1) To test the ability of anti-FGFR2 antibody drug conjugates (ADCs) disclosed herein to kill human cell lines, an in vitro cytotoxicity assay was performed. In vitro cytotoxicity of the anti-FGFR2 ADCs, isotype control ADCs, and reference free payloads were evaluated using the CellTiter-Glo 2.0 Assay Kit (Promega, Cat #G9243), in which the quantity of ATP present is used to determine the number of viable cells in culture. The payloads Maytansinoid 1A, Maytansinoid 1A* (a cell permeable equivalent of Maytansinoid 1A), and Tubulysin 1A were tested as free payloads, and the unconjugated antibodies, including comparator antibodies, were used as controls.
(§2) Five-fold serial dilutions of anti-FGFR2 ADCs or isotype control ADCs were prepared in dilution media (Optimem+0.1% BSA) and added to cells at final concentrations ranging from 20 nM to 0.051 pM (concentrations were corrected for the DAR and are dosed based on the effective payload concentration). Five-fold serial dilutions of free payloads were prepared in 100% DMSO, transferred to fresh dilution media, and then added to the cells at a final constant DMSO concentration of 0.2% and final payload concentrations ranging from 20 nM to 0.051 pM. The last well in each dilution series served as an untreated control and included media alone or media plus 0.2% DMSO and was plotted as a continuation of the 5-fold serial dilution. Six days later, 100 uL of CellTiter Glo 2.0 was added to each well, plates were mixed for 2 minutes on an orbital shaker, and plates were incubated at room temperature for 10 minutes. Relative light units (RLUs) were measured on an Envision luminometer (Perkin Elmer) and cell viability was expressed as a percentage of the untreated (100% viable) cells. IC50 values were determined using a four-parameter logistic equation over a 10-point dose response curve (GraphPad Prism). The maximum % kill was also determined for each test article as follows: 100−minimum percent viability.

[2] = test system: NCI-H716 cells; test: In vitro cytotoxicity assay (CellTiter-Glo 2.0), NCI-H716 cells; type: cell-based, human; conditions: for Max % Kill: NCI-H716, up to 20 nM
Description: as §1, §2

[3] = test system: IM-9 cells; test: In vitro cytotoxicity assay (CellTiter-Glo 2.0), IM-9 cells; type: cell-based, human; conditions: for Max % Kill: IM-9, up to 20 nM
Description: as §1, §2

[4] = test system: SNU-16, MFM-223, NCI-H716, or IM-9 cells; test: In vitro cytotoxicity assay, several cell lines; type: cell-based, human; conditions: for IC50: Homo sapiens, read-out: IC50 values
Description: as §1
as §2, with “Five-fold” for “Five-fold serial dilutions of anti-FGFR2 ADCs or isotype control ADCs were prepared in dilution media (Optimem+0.1% BSA) and added to cells at final concentrations ranging from 20 nM to 0.051 pM (concentrations were corrected for the DAR and are dosed based on the effective payload concentration). Five-fold”
A comparator anti-FGFR2 ADC that recognizes both FGFR2b and FGFR2c and is conjugated to an auristatin payload (Comp2-BAY-LP) was also tested for cytotoxicity.

[5] = test system: SNU-16 cells; test: In vitro cytotoxicity assay (CellTiter-Glo 2.0), SNU-16 cells; type: cell-based, human; conditions: for Max % Kill: SNU-16, up to 20 nM
Description: as §1, §2

[6] = test system: SNU-16 + NALM-6 Cells; test: In vitro bystander assay, SNU-16 + NALM-6 coculture (1:1); type: cell-based
Description: as §2, with “The last well in each dilution series served as an untreated control and included media alone or media plus 0.2% DMSO and was plotted as a continuation of the 5-fold serial dilution. Six days later, 100 uL of CellTiter Glo 2.0 was added to each well, plates were mixed for 2 minutes on an orbital shaker, and plates were incubated at room temperature for 10 minutes.” left out
(§3) The ability of the anti-FGFR2 ADCs to induce cytotoxicity in FGFR2 negative cells through release of the payload in FGFR2 positive cells, i.e., bystander activity, was also assessed. […] Cytotoxicity was assessed as described previously for tumor cell lines except that three-fold serial dilutions were performed for all test articles with concentrations ranging from 100 nM to 15.2 pM, and cells were incubated with test articles for 5 days.

[7] = test system: NALM-6 cells; test: In vitro bystander assay, NALM-6 monoculture; type: cell-based
Description: as §2, with “The last well in each dilution series served as an untreated control and included media alone or media plus 0.2% DMSO and was plotted as a continuation of the 5-fold serial dilution. Six days later, 100 uL of CellTiter Glo 2.0 was added to each well, plates were mixed for 2 minutes on an orbital shaker, and plates were incubated at room temperature for 10 minutes.” left out
as §3

[8] = test system: SNU-16 cells; test: In vitro bystander assay, SNU-16 monoculture; type: cell-based, human
Description: as §2, with “The last well in each dilution series served as an untreated control and included media alone or media plus 0.2% DMSO and was plotted as a continuation of the 5-fold serial dilution. Six days later, 100 uL of CellTiter Glo 2.0 was added to each well, plates were mixed for 2 minutes on an orbital shaker, and plates were incubated at room temperature for 10 minutes.” left out
as §3

[9] = minimum tolerated dose below the therapeutic threshold estimated preclinically; trial terminated early; cited from earlier work
[10] = test system: FGFR2 positive tumors; conditions: cited from earlier work
[11] = molecular target: T1, hFGFR2b.mmh (Homo sapiens, UniProt P21802); test: Biacore surface plasmon resonance binding kinetics to hFGFR2b.mmh; conditions: 25° C.
T1 construct: myc-myc-hexahistidine (MMH) (C); made in house
T1 sequence (P21802 with tags, fused parts or gaps isoform P21802-3): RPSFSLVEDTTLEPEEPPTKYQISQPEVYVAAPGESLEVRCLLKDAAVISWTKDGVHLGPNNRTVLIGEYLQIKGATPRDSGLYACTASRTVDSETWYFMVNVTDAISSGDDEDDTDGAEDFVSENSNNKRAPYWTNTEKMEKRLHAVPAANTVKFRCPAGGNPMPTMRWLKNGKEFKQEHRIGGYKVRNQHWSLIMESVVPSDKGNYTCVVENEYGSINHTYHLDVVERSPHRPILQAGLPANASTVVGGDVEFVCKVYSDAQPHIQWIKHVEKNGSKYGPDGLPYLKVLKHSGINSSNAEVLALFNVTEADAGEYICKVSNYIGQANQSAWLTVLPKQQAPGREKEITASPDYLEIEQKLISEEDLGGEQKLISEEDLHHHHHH
Description: The Biacore sensor surface was derivatized by amine coupling with a monoclonal mouse anti-human Fc antibody (REGN2567 or Jackson Cat. […] Human FGFR2b and Human FGFR2c were prepared in-house expressing a C-terminal myc-myc-hexahistidine tag ([…] NO: 57; […] NO: 58). […] Association of hFGFR2b-MMH or hFGFR2c-MMH to each of the captured ADCs and monoclonal antibodies was monitored for 4 minutes. Subsequently, dissociation was monitored for 10 minutes in HBS-EP running buffer. Anti-human Fc surface was regenerated by a brief injection of 20 mM H3PO4. All binding kinetic experiments were performed at 25° C. […] All sensorgrams were double referenced by subtracting buffer injection sensorgram signal from the corresponding analyte sensorgram, thereby removing artifacts caused by dissociation of the antibody from the capture surface. […] [formula]

[12] = molecular target: T2, hFGFR2c.mmh (Homo sapiens, UniProt P21802); test: Biacore surface plasmon resonance binding kinetics to hFGFR2c.mmh; conditions: 25° C.
T2 construct: myc-myc-hexahistidine (MMH) (C); made in house
T2 sequence (P21802 with tags, fused parts or gaps): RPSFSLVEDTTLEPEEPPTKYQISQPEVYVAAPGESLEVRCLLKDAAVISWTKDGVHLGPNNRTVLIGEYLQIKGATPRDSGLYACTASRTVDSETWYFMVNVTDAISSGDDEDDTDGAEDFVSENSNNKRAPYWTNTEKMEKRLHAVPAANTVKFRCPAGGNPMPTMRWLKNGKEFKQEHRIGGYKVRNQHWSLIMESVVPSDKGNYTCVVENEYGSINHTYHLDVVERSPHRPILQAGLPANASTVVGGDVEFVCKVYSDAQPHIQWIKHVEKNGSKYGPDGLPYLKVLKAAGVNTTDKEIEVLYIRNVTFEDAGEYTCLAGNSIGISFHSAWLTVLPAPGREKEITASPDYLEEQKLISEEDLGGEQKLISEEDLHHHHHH
Description: The equilibrium dissociation constants (KD values) for hFGFR2b.mmh binding to anti-FGFR2 antibodies conjugated with Tubulysin (“tubulysin 1ALP”), Auristatin (“auristatin LP1”), or mc-VC-PAB-NMe-C3-May (“maytansinoid 1ALP”) were determined using a real-time surface plasmon resonance biosensor assay on a Biacore 2000 or a Biacore 4000 instrument. The Biacore sensor surface was derivatized by amine coupling with a monoclonal mouse anti-human Fc antibody (REGN2567 or Jackson Cat. No #109-005-098) to capture anti-FGFR2 ADC and parent unmodified antibodies expressed with human constant regions. Biacore binding studies were performed in HBS-EP running buffer (0.01M HEPES pH 7.4, 0.15M NaCl, 3 mM EDTA, 0.05% v/v Surfactant P20). […] Association of hFGFR2b-MMH or hFGFR2c-MMH to each of the captured ADCs and monoclonal antibodies was monitored for 4 minutes. Subsequently, dissociation was monitored for 10 minutes in HBS-EP running buffer. […] Kinetic association (ka) and dissociation (kd) rate constants were determined by fitting the real-time sensorgrams to a 1:1 binding model using Scrubber 2.0c curve fitting software. […] Binding dissociation equilibrium constants (KD) and dissociative half-lives (t½) were calculated from the kinetic rate constants as: […]

Molecule: CNCCC(=O)N(C)[C@@H](C)C(=O)O[C@H]1CC(=O)N(C)c2cc(cc(OC)c2Cl)C/C(C)=C/C=C/[C@@H](OC)[C@@]2(O)C[C@H](OC(=O)N2)[C@@H](C)[C@@H]2O[C@@]12C [maytansinoid 1A]
- IC50 ([1]; Homo sapiens, MFM-223, 144 h, read-out: IC50): > 20 nM
- Max % Kill ([1]; 6 days): 18.1%
- IC50 ([2]; Homo sapiens, 144 h, NCI-H716 (low FGFR2b, high FGFR2c), 6 days, read-out: IC50): > 20 nM
- Max % Kill ([2]; 6 days): 6.4%
- IC50 ([3]; Homo sapiens, 144 h, IM-9 (non-FGFR2 expressing), 6 days, read-out: IC50): > 20 nM
- Max % Kill ([3]; 6 days): 3.7%
- IC50 ([4]; all tested cells, lower end of range, upper end >20 nM): ≥ 4.63 nM
- IC50 ([5]; Homo sapiens, 144 h, SNU-16 (FGFR2b positive), 6 days, read-out: IC50): > 20 nM
- Max % Kill ([5]; 6 days): 9.2%

Molecule: C#CCCCON(C(=O)[C@@H](NC(=O)[C@H]1CCCCN1C)[C@@H](C)CC)[C@H](C[C@@H](OC(C)=O)c1nc(C(=O)N[C@@H](Cc2ccc(N)cc2)CC(C)(C)C(=O)O)cs1)C(C)C [Tubulysin 1A]
- IC50 ([1]; Homo sapiens, MFM-223, 144 h): 0.00376 nM
- Max % Kill ([1]; 6 days): 89.7%
- IC50 ([2]; Homo sapiens, NCI-H716, 144 h): 0.0743 nM
- Max % Kill ([2]; 6 days): 84.9%
- IC50 ([6]; 120 h): 0.166 nM
- Max % Kill ([6]; SNU-16 + NALM-6 1:1 coculture, 5 days): 99.5%
- IC50 ([3]; Homo sapiens, IM-9, 144 h): 0.0212 nM
- Max % Kill ([3]; 6 days): 94.6%
- IC50 ([7]; Homo sapiens, NALM-6, 120 h): 0.0709 nM
- Max % Kill ([7]; NALM-6 monoculture, 5 days): 99.9%
- IC50 [4]: 0.00369 to 0.0743 nM
- IC50 ([8]; Homo sapiens, SNU-16, 120 h): 0.0184 nM
- Max % Kill ([8]; SNU-16 monoculture, 5 days): 99.3%
- IC50 ([5]; Homo sapiens, SNU-16, 144 h): 0.00369 nM
- Max % Kill ([5]; 6 days): 95.1%

B1: Aprutumab ixodotin: FGFR2 antibody conjugated to auristatin (conjugate, chains of the INN, looked up)
VH: EVQLLESGGGLVQPGGSLRLSCAASGFTFSSYAMSWVRQAPGKGLEWVSAISGSGTSTYYADSVKGRFTISRDNSKNTLYLQMNSLRAEDTAVYYCARVRYNWNHGDWFDPWGQGTLVTVSS
VL: QSVLTQPPSASGTPGQRVTISCSGSSSNIGNNYVSWYQQLPGTAPKLLIYENYNRPAGVPDRFSGSKSGTSASLAISGLRSEDEADYYCSSWDDSLNYWVFGGGTKLTVL
modifications: auristatin payload conjugate
notes: FGFR2 antibody conjugated to auristatin
- tolerability in clinical testing [9]: poorly tolerated

B2: Bemarituzumab: anti-FGFR2 therapy (antibody, chains of the INN, looked up, V domains shown)
VH: QVQLVQSGAEVKKPGSSVKVSCKASGYIFTTYNVHWVRQAPGQGLEWIGSIYPDNGDTSYNQNFKGRATITADKSTSTAYMELSSLRSEDTAVYYCARGDFAYWGQGTLVTVSS
VL: DIQMTQSPSSLSASVGDRVTITCKASQGVSNDVAWYQQKPGKAPKLLIYSASYRYTGVPSRFSGSGSGTDFTFTISSLQPEDIATYYCQQHSTTPYTFGQGTKLEIK
- treatment outcome [10]: improvements in early survival and advanced disease

B3: Comp1: Comparator (Five Prime Therapeutics): humanized anti-FGFR2b isoform antibody of Catenacci et al. (Bemarituzumab, FPA144) (antibody, chains of the INN, looked up, V domains shown)
VH: QVQLVQSGAEVKKPGSSVKVSCKASGYIFTTYNVHWVRQAPGQGLEWIGSIYPDNGDTSYNQNFKGRATITADKSTSTAYMELSSLRSEDTAVYYCARGDFAYWGQGTLVTVSS
VL: DIQMTQSPSSLSASVGDRVTITCKASQGVSNDVAWYQQKPGKAPKLLIYSASYRYTGVPSRFSGSGSGTDFTFTISSLQPEDIATYYCQQHSTTPYTFGQGTKLEIK
- Kd [11]: 60.8 nM
- ka [11]: 77400 M⁻¹ s⁻¹
- kd [11]: 0.00471 s⁻¹
- Antigen Bound (RU) ([11]; antibody or ADC captured on anti-human Fc surface): 68.3 RU
- t1/2 ([11]; dissociative half-life): 2.5 min
- IC50 ([1]; MFM-223 (FGFR2b positive), 6 days, read-out: IC50): > 20 nM
- Max % Kill ([1]; 6 days): 0.8%
- IC50 ([2]; NCI-H716 (low FGFR2b, high FGFR2c), 6 days, read-out: IC50): > 20 nM
- Max % Kill ([2]; 6 days): 9.9%
- IC50 ([3]; IM-9 (non-FGFR2 expressing), 6 days, read-out: IC50): > 20 nM
- Max % Kill ([3]; 6 days): 3.8%
- Kd [12]: > 30 nM
- Antigen Bound (RU) ([12]; antibody captured on anti-human Fc surface): 0.6 RU
- EC50 ([4]; all tested lines, unconjugated antibodies): > 20 nM
- IC50 ([5]; SNU-16 (FGFR2b positive), 6 days, read-out: IC50): > 20 nM
- Max % Kill ([5]; 6 days): 0.0%
